Data published in PMC8066339, “Optimization of 2-Acylaminocycloalkylthiophene Derivatives for Activity against Staphylococcus aureus RnpA” (Antibiotics, 2021).

Tests used:
[1] = system: Human liver epithelial cells (HEP G2); assay: MTT cytotoxicity testing; details: for HEP G2 toxicity against 70% viability cut-off (in words): concentrations lower than 50 µM
Protocol: (§1) For the scaffold to have translational significance, it must be non-toxic to human cells. Accordingly, an initial assessment of toxicity was performed using human liver epithelial (HEP G2) cells via a 3-(4,5-dimethylthiazol-2-yl)-2,5-diphenyltetrazolium bromide (MTT) assay in the presence of up to 400 µM of each analog. […] Viability of 70% was used as the cut-off criteria for toxicity (Figure 4, dashed line), according to ISO guidelines, as described in Materials and Methods.
(§2) Human liver epithelial cells (HEP G2) were cultured in Dulbecco’s Modified Eagle Medium (DMEM; Fisher Scientific, Hampton, NH) supplemented with 10% heat inactivated fetal bovine serum (FBS; Corning Life Sciences) and 1% penicillin/streptomycin (Thermofisher Scientific). Cells were incubated at 37 °C with 5% CO2 in Nunc (Roskilde, Denmark) tissue culture flasks. Cells were grown in monolayers until exceeding 70% confluency, removed with 0.25% trypsin (Fisher Scientific), resuspended in fresh medium, and used to seed approximately 2.5 × 10^5 cells/mL into each well of a 96 well tissue culture microplate (Nunc) containing 200 µL of fresh medium. Cytotoxicity testing was conducted according to the guidelines of the International Organization for Standardization (ISO) 10993-5:2009. After 24 h of incubation, the cell media was removed, and adherent cells were washed with 1× phosphate buffered saline (PBS). Cell media was supplemented with 5% per volume of compound at final concentrations from 12.5 µM to 400 µM and incubated 20–24 h at 37 °C with 5% CO2. After incubation, medium supplemented with compound was removed from the wells and replaced with 100 µL of fresh culture medium. Then, 10 µL of 12 mM (3-(4,5-dimethylthiazol-2-yl)-2,5-diphenyltetrazolium bromide (MTT) stock reagent (CyQUANT MTT cell proliferation kit; Thermofisher Scientific) was added to each well. After labeling the cells with the MTT reagent, all but 25 µL of medium was removed from the wells, and 50 µL of DMSO was added to each well and mixed thoroughly and cells were incubated at 37 °C with 5% CO2 for 10 min. After incubation, wells were mixed again and using a SPECTRAmax5 microplate reader, absorbance was read at 540 nm. Cells were treated with 125 µg/mL mitomycin C (Fisher Scientific) to serve as a positive control and 2% DMSO as a negative control. […] All compounds were tested in two independent experiments in triplicate and cell viability was expressed as a percent of the negative control.

[2] = MTT cytotoxicity testing; details: human, HEP G2 cells (human liver epithelial cells)
Protocol: as §1, §2

[3] = system: S. aureus clinical isolate USA300; assay: Murine corneal infection (keratitis) model; assay type: in vivo, Staphylococcus aureus; details: BALB/c mice, 50 µM topical 5 µL every 6 h for 48 h; not statistically different (t-test)
Protocol: Corneal infections were induced by inoculating corneal scratches with S. aureus, eyes were treated with RNP0012 6 h later and every 6 h thereafter for 48 h and bacterial burden was enumerated.
In vivo efficacy studies utilizing a murine model of corneal S. aureus infection were performed as previously described. Female BALB/c mice four to six weeks of age were acquired from Charles River ([…], MA, USA) and housed according to the approved University of Rochester Medical Center Council on Animal Research (UCAR) protocol. S. aureus clinical isolate USA300 was grown overnight on both MH agar and MH broth at 37 °C. Broth cultures were centrifuged at 2000× g for 10 min at 4 °C and the pellet was resuspended in 1× sterile PBS in a volume equivalent to the starting volume. The mice were anesthetized with 100 mg kg^−1 ketamine (Par Pharmaceutica; Chestnut Ridge, NY, USA) and 10 mg kg^−1 xylazine (Akorn, Inc.; Lake Forest, IL, USA) and 0.5% proparacaine (Akorn, Inc.) was applied to the right eye of each mouse. Excess proparacaine was blotted from the ocular surface. Using a 27-gauge needle, inoculated with a single colony of S. aureus USA300, three 2 mm scratches were made across the right cornea. […] The animals were euthanized after 48 h and whole eyes were excised, homogenized, and plated to quantitate viable S. aureus colonies present. […]

SMILES | HEP G2 toxicity against 70% viability cut-off (in words) [1] | viability at 50 µM [2] | Therapeutic index ([1]; human) | Fold of the 50 µM cytotoxicity dose above the MIC against S. aureus ([1]; human, 50 µM) | CFU reduction in comparison to vehicle treated animals [3]
Cc1cccc(NC(=O)c2c(NC(=O)C(F)(F)F)sc3c2CCCCC3)c1 [RNP0010] | did not exhibit toxicity that was beyond the 70% cut-off criteria |  |  |  | 
O=C(Nc1ccc(C(F)(F)F)cc1)c1c(NC(=O)C(F)(F)F)sc2c1CCCCC2 [RNP0012] |  | 68% | ~ 260 | 263 fold | 1.2 log CFU
O=C(Nc1ccc(F)cc1)c1c(NC(=O)C(F)(F)F)sc2c1CCCCC2 [RNP0009] | did not exhibit toxicity that was beyond the 70% cut-off criteria |  |  |  | 
O=C(Nc1cccc(F)c1)c1c(NC(=O)C(F)(F)F)sc2c1CCCCC2 [RNP0008] | did not exhibit toxicity that was beyond the 70% cut-off criteria |  |  |  | 
